Test results as given in patent US8329705B2, “Substituted triazolo-pyrazine compounds” (ArQule, Inc., priority 2009, dated 2012).

What was measured:
[1] = target: T1, FGFR2 (N549H) (Homo sapiens, UniProt P21802, N549H); assay: FGFR2 kinase activity assay (fluorescent ELISA); assay type: biochemical; details: 30 μM compound
T1 construct: purchased Millipore 14-742
Experimental: A fluorescent ELISA assay was developed to identify and characterize inhibitors of FGFR2 kinase. This heterogeneous assay utilized a biotinylated peptide with a tyrosine motif as a substrate and an anti-phospho-tyrosine antibody to measure phosphorylation of the substrate. The reaction was initiated by adding a test compound, 37 uM Pyk2 substrate (Midwest Biotech, cat. #MBT2383), 12.5 uM ATP (Roche, cat. #11 140 965 001), and 0.5 uM FGFR2 enzyme (Millipore, cat. #14-742) sequentially to a non-binding polypropylene V-well plate. All reagents were in assay buffer consisting of: 50 mM Tris-HCL, 0.02 mg/mL BSA, 10 mM MgCl2, 0.1 mM Na3VO4, 1 mM EGTA, […], 0.01% NP-40, 2 mM DTT, 10% Glycerol. The reaction was incubated for 60 minutes. As the reaction proceeded, FGFR2 phosphorylated tyrosines in the peptide. The reaction mixture was then moved to a blocked streptavidin coated Nunc Maxisorb plate (coated with 100 ng streptavidin from Pierce (cat #15-124) per well) allowing for the capture of the biotinylated peptide. Peptide was captured for 30 minutes at room temperature, the phosphorylation of peptide continues during this phase. The reaction was stopped by washing the Streptavidin plate 6 times with TBST. Phosphorylated peptide was detected by adding anti-phospho tyrosine antibody (purchased from Cell Signaling, cat. #9411, diluted 1:3000), unbound antibody was removed by washing 6 times with TBST. Secondary detection was performed using Alkaline Phosphatase tagged goat anti-mouse antibody (purchased from Pierce, cat. #31320, diluted 1:4000) for one hour. Unbound secondary antibody was removed by washing 6 times with TBST.
The fluorescent readout was initiated by the addition of Promega Attophos substrate (purchased from Promega; Kit catalog number: S1000, dilution=6 mg/10 mL), which when dephosphorylated by Alkaline phosphatase emitted a fluorescent signal of […] when excited by a signal […]. This reading was done on the Perkin Elmer Envision system. […] The signal was directly proportional to the activity of FGFR2 and compound inhibition of FGFR2 was monitored by a decrease in signal.

[2] = test system: MDA-MB-231 cancer cells; assay: MTS assay, MDA-MB-231 cells; assay type: cell-based; design: concentration or dose not given beside the values
Experimental: (§1) Cells were maintained at 37° C., 5% CO2 in DMEM media supplemented with 1% fetal bovine serum, penicillin/streptomycin and fungizone (Invitrogen). Cells were seeded into 96-well tissue culture plates at 3000 per well and cultured at 37° C. for 18 hours. Test compounds were dissolved and diluted to 300× in DMSO then diluted 1:40 in DMEM. Cells were incubated with test compounds for 72 hours followed by incubation with tetrazolium compound (3-(4,5-dimethylthiazol-2-yl)-5-(3-carboxymethoxyphenyl)-2-(4-sulfophenyl)-2H-tetrazolium, inner salt; MTS) and the electron coupling reagent, phenazine methosulfate (PMS) for 4 hours. […] The ability of compounds to inhibit cell growth in this assay is correlated with the reduction of dehydrogenase enzyme activity found in metabolically active cells. The measurement of the absorbance of the formazan was assessed using a Victor (Perkin Elmer) microplate reader at 492 nm. The calculated IC50 value is the concentration of the test compound that causes a 50% decrease in the absorbance. Percent inhibition by representative compounds of the present invention in MDA-MB231 and DLD-1 cancer cells is shown in Table 4.

[3] = test system: DLD-1 cancer cells; assay: MTS assay, DLD-1 cells; assay type: cell-based; design: concentration or dose not given beside the values
Experimental: as §1

T1 sequence (P21802 22-821 N549H): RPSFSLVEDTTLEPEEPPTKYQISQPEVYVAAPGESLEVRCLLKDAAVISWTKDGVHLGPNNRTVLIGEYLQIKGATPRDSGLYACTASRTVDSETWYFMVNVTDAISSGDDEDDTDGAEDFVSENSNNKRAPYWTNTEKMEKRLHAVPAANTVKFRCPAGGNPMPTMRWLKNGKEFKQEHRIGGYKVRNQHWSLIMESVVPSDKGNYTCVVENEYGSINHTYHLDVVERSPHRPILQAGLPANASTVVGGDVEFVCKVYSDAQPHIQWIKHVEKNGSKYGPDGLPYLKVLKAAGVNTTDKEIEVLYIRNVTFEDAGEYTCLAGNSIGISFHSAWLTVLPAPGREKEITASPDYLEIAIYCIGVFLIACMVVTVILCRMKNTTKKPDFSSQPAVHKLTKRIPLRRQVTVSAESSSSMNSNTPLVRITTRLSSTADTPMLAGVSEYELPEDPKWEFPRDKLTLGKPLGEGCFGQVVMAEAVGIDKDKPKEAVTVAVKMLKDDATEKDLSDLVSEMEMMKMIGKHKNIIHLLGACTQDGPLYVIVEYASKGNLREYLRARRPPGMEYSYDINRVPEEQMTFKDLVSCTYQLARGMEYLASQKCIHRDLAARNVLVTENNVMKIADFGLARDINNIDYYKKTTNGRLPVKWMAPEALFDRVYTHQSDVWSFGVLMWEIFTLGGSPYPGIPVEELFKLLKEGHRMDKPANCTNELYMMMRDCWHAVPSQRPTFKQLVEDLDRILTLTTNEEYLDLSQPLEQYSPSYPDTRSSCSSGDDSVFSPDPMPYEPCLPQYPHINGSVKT

inhibition at 30 µM [1] [%]	SMILES	MDA-MB-231, MTS, 72 hours (% inhibition) [2] [%]	DLD-1, MTS, 72 hours (% Inhibition) [3] [%]
54.6	Cc1ccccc1Nc1nccn2c(N)nnc12 [Compound 157, N^8-(2-methylphenyl)[1,2,4]triazolo[4,3-a]pyrazine-3,8-diamine]	98	97
68.6	Nc1nnc2c(Nc3cc(Cl)ccc3Cl)nccn12 [Compound 160, N^8-(2,5-dichlorophenyl)[1,2,4]triazolo[4,3-a]pyrazine-3,8-diamine]	81	53
